Source: patent US20240366770A1, “DEGRADATION OF BRUTON'S TYROSINE KINASE (BTK) BY CONJUGATION OF BTK INHIBITORS WITH E3 LIGASE LIGAND AND METHODS OF USE” (BeiGene Switzerland GmbH, priority 2021, published 2024)
Where two headings read alike, the source gives them in different places.

Legend:
BTK = biological target: T1, BTK (Homo sapiens, UniProt Q06187); test: BTK degradation in TMD-8 cells (HTRF assay); assay type: cell-based; conditions: 6 h treatment, IC50 (DC50) of BTK degradation
T1 construct: High control=Cell group with added DMSO and without compound, indicating microplate readings without BTK degradation; endogenous in cells; host or cells: TMD-8
Method in brief: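 BTK remaining after compound treatment was measured by HTRF (337 nm excitation, 665/620 nm emission) in lysates of TMD-8 cells. Cells were exposed for 6 h to eight 6-fold-spaced concentrations in 0.2% DMSO. DC50 values were obtained from a Hill-equation fit (top, bottom, slope) of % inhibition.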

HEK-293 cells = test: HEK-293 cytotoxicity detection (CellTiter-Glo); assay type: cell-based; conditions: HEK-293 cells, 72 h incubation, CellTiter-Glo luminescence, IC50 of cell proliferation inhibition, read-out: HEK293
Method in brief: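 Four-parameter logistic fitting of percent inhibition versus concentration gives IC50. Luminescent ATP read-out (CellTiter-Glo) after 72 h compound treatment of HEK-293 cells, 8 doses in 4-fold steps from a 5 mM 500× DMSO stock, final DMSO 0.2%.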

T1 sequence (Q06187 whole entry): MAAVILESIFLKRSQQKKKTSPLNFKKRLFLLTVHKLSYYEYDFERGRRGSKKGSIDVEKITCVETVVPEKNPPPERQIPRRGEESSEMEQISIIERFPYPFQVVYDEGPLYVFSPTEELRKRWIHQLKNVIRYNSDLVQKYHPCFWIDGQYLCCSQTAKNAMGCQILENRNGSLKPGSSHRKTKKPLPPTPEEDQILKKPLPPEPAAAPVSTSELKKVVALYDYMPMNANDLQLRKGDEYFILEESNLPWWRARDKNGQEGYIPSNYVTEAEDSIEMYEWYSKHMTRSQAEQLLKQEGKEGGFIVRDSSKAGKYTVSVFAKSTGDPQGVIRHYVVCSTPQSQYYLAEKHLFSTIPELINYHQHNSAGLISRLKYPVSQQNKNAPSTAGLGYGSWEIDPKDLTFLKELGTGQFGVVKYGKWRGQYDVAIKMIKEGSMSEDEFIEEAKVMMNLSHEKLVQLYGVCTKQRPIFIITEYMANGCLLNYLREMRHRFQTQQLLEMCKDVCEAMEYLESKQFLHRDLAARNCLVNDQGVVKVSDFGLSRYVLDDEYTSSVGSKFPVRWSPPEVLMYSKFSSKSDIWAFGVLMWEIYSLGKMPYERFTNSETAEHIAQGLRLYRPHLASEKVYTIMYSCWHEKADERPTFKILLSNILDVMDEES

DC50 (BTK) [nM] | SMILES | IC50 (HEK-293 cells; Homo sapiens) [nM] | IC50 (HEK-293 cells) [nM]
1.16 | Cc1cc(-c2ncnc3[nH]c4cc(CN5CCN(CC6CCN(c7ccc(N8CCC(=O)NC8=O)cc7)CC6)CC5)ccc4c23)ccc1[C@@H](C)NC(=O)c1nc(C(C)(C)C)no1 [Example 104, (R)-3-(tert-butyl)-N-(1-(4-(7-((4-((1-(4-(2,4-dioxotetrahydropyrimidin-1(2H)-yl)phenyl)piperidin-4-yl)methyl)piperazin-1-yl)methyl)-9H-pyrimido[4,5-b]indol-4-yl)-2-methylphenyl)ethyl)-1,2,4-oxadiazole-5-carboxamide] | > 10000 | –
0.512 | Cc1cc(-c2ncnc3[nH]c4cc(CCN5CCN(C6CN(c7ccc(N8CCC(=O)NC8=O)cc7)C6)CC5)ccc4c23)ccc1[C@@H](C)NC(=O)c1nc(C(C)(C)C)no1 [Example 105, (R)-3-(tert-butyl)-N-(1-(4-(7-(2-(4-(1-(4-(2,4-dioxotetrahydropyrimidin-1(2H)-yl)phenyl)azetidin-3-yl)piperazin-1-yl)ethyl)-9H-pyrimido[4,5-b]indol-4-yl)-2-methylphenyl)ethyl)-1,2,4-oxadiazole-5-carboxamide] | > 10000 | –
0.324 | Cc1cc(-c2ncnc3[nH]c4cc(CCN5CCN(c6ccc(N7CCC(=O)NC7=O)cc6)CC5)ccc4c23)ccc1[C@@H](C)NC(=O)c1nc(C(C)(C)C)no1 [Example 106, (R)-3-(tert-butyl)-N-(1-(4-(7-(2-(4-(4-(2,4-dioxotetrahydropyrimidin-1(2H)-yl)phenyl)piperazin-1-yl)ethyl)-9H-pyrimido[4,5-b]indol-4-yl)-2-methylphenyl)ethyl)-1,2,4-oxadiazole-5-carboxamide] | > 10000 | –
2.99 | Cc1cc(-c2ncnc3[nH]c4cc(N5CCC6(CC5)CCN(C5CC(c7ccc(N[C@@H]8CCC(=O)NC8=O)cc7)C5)CC6)ccc4c23)ccc1[C@@H](C)NC(=O)c1nc(C(C)(C)C)no1 (stereo partly drawn) [Example 107, 3-(tert-butyl)-N—((R)-1-(4-(7-(9-((1S,3r)-3-(4-(((S)-2,6-dioxopiperidin-3-yl)amino)phenyl)cyclobutyl)-3,9-diazaspiro[5.5]undecan-3-yl)-9H-pyrimido[4,5-b]indol-4-yl)-2-methylphenyl)ethyl)-1,2,4-oxadiazole-5-carboxamide] | – | 1030
2.64 | Cc1cc(-c2ncnc3[nH]c4cc(N5CCC6(CC5)CCN(C5CC(c7ccc(N[C@H]8CCC(=O)NC8=O)cc7)C5)CC6)ccc4c23)ccc1[C@@H](C)NC(=O)c1nc(C(C)(C)C)no1 (stereo partly drawn) [Example 108, 3-(tert-butyl)-N-((1R)-1-(4-(7-(9-((1s,3s)-3-(4-((2,6-dioxopiperidin-3-yl)amino)phenyl)cyclobutyl)-3,9-diazaspiro[5.5]undecan-3-yl)-9H-pyrimido[4,5-b]indol-4-yl)-2-methylphenyl)ethyl)-1,2,4-oxadiazole-5-carboxamide] | – | 949
6.07 | Cc1cc(-c2ncnc3[nH]c4cc(N5CCC6(CC5)CCN([C@H]5C[C@H](c7ccc(N[C@@H]8CCC(=O)NC8=O)cc7)C5)CC6)ccc4c23)ccc1[C@@H](C)NC(=O)c1nc(C(C)(C)C)no1 [Example 109, 3-(tert-butyl)-N—((R)-1-(4-(7-(9-((1R,3r)-3-(4-(((R)-2,6-dioxopiperidin-3-yl)amino)phenyl)cyclobutyl)-3,9-diazaspiro[5.5]undecan-3-yl)-9H-pyrimido[4,5-b]indol-4-yl)-2-methylphenyl)ethyl)-1,2,4-oxadiazole-5-carboxamide] | 1010 | –
1.25 | Cc1cc(-c2ncnc3[nH]c4cc(N5CCC6(CC5)CCN([C@H]5C[C@H](c7ccc([C@@H]8CCC(=O)NC8=O)cc7)C5)CC6)ccc4c23)ccc1[C@@H](C)NC(=O)c1nc(C(C)(C)C)no1 [Example 110, 3-(tert-butyl)-N—((R)-1-(4-(7-(9-((1S,3r)-3-(4-((S)-2,6-dioxopiperidin-3-yl)phenyl)cyclobutyl)-3,9-diazaspiro[5.5]undecan-3-yl)-9H-pyrimido[4,5-b]indol-4-yl)-2-methylphenyl)ethyl)-1,2,4-oxadiazole-5-carboxamide] | 2000 | –
2.89 | Cc1cc(-c2ncnc3[nH]c4cc(N5CCC6(CC5)CCN([C@H]5C[C@@H](c7ccc([C@@H]8CCC(=O)NC8=O)cc7)C5)CC6)ccc4c23)ccc1[C@@H](C)NC(=O)c1nc(C(C)(C)C)no1 [Example 111, 3-(tert-butyl)-N—((R)-1-(4-(7-(9-((1R,3s)-3-(4-((S)-2,6-dioxopiperidin-3-yl)phenyl)cyclobutyl)-3,9-diazaspiro[5.5]undecan-3-yl)-9H-pyrimido[4,5-b]indol-4-yl)-2-methylphenyl)ethyl)-1,2,4-oxadiazole-5-carboxamide] | 1370 | –
2.47 | Cc1cc(-c2ncnc3[nH]c4cc(N5CCC6(CC5)CCN([C@H]5C[C@H](c7ccc([C@H]8CCC(=O)NC8=O)cc7)C5)CC6)ccc4c23)ccc1[C@@H](C)NC(=O)c1nc(C(C)(C)C)no1 [Example 112, 3-(tert-butyl)-N—((R)-1-(4-(7-(9-((1R,3r)-3-(4-((R)-2,6-dioxopiperidin-3-yl)phenyl)cyclobutyl)-3,9-diazaspiro[5.5]undecan-3-yl)-9H-pyrimido[4,5-b]indol-4-yl)-2-methylphenyl)ethyl)-1,2,4-oxadiazole-5-carboxamide] | 1890 | –
3.46 | Cc1cc(-c2ncnc3[nH]c4cc(N5CCC6(CC5)CCN([C@H]5C[C@@H](c7ccc([C@H]8CCC(=O)NC8=O)cc7)C5)CC6)ccc4c23)ccc1[C@@H](C)NC(=O)c1nc(C(C)(C)C)no1 [Example 113, 3-(tert-butyl)-N—((R)-1-(4-(7-(9-((1S,3s)-3-(4-((R)-2,6-dioxopiperidin-3-yl)phenyl)cyclobutyl)-3,9-diazaspiro[5.5]undecan-3-yl)-9H-pyrimido[4,5-b]indol-4-yl)-2-methylphenyl)ethyl)-1,2,4-oxadiazole-5-carboxamide] | 1120 | –
1.89 | Cc1cc(-c2ncnc3[nH]c4cc(N5CCC6(CCN(CC7CCN(c8ccc(N9CCC(=O)NC9=O)cc8)CC7)CC6)CC5)ccc4c23)ccc1[C@@H](C)NC(=O)c1nc(C(C)(C)C)no1 [Example 114, (R)-3-(tert-butyl)-N-(1-(4-(7-(9-((1-(4-(2,4-dioxotetrahydropyrimidin-1(2H)-yl)phenyl)piperidin-4-yl)methyl)-3,9-diazaspiro[5.5]undecan-3-yl)-9H-pyrimido[4,5-b]indol-4-yl)-2-methylphenyl)ethyl)-1,2,4-oxadiazole-5-carboxamide] | 923 | –
0.759 | Cc1cc(-c2ncnc3[nH]c4cc(N5CCN([C@H]6C[C@@H](c7ccc(NC8CCC(=O)NC8=O)cc7)C6)CC5)ccc4c23)ccc1[C@@H](C)NC(=O)c1nc(C2(C)CC2)no1 (stereo partly drawn) [Example 115, N-((1R)-1-(4-(7-(4-((1s,3s)-3-(4-((2,6-dioxopiperidin-3-yl)amino)phenyl)cyclobutyl)piperazin-1-yl)-9H-pyrimido[4,5-b]indol-4-yl)-2-methylphenyl)ethyl)-3-(1-methylcyclopropyl)-1,2,4-oxadiazole-5-carboxamide] | > 10000 | –
0.509 | Cc1cc(-c2ncnc3[nH]c4cc(N5CCN([C@H]6C[C@H](c7ccc(NC8CCC(=O)NC8=O)cc7)C6)CC5)ccc4c23)ccc1[C@@H](C)NC(=O)c1nc(C2(C)CC2)no1 (stereo partly drawn) [Example 116, N-((1R)-1-(4-(7-(4-((1r,3r)-3-(4-((2,6-dioxopiperidin-3-yl)amino)phenyl)cyclobutyl)piperazin-1-yl)-9H-pyrimido[4,5-b]indol-4-yl)-2-methylphenyl)ethyl)-3-(1-methylcyclopropyl)-1,2,4-oxadiazole-5-carboxamide] | > 10000 | –
0.981 | Cc1cc(-c2ncnc3[nH]c4cc(N5CCN([C@H]6C[C@H](c7ccc(N[C@@H]8CCC(=O)NC8=O)cc7)C6)CC5)ccc4c23)ccc1[C@@H](C)NC(=O)c1nc(C2(C)CC2)no1 [Example 117, N—((R)-1-(4-(7-(4-((1R,3r)-3-(4-(((R)-2,6-dioxopiperidin-3-yl)amino)phenyl)cyclobutyl)piperazin-1-yl)-9H-pyrimido[4,5-b]indol-4-yl)-2-methylphenyl)ethyl)-3-(1-methylcyclopropyl)-1,2,4-oxadiazole-5-carboxamide] | > 10000 | –
1.73 | Cc1cc(-c2ncnc3[nH]c4cc(N5CCN([C@H]6C[C@@H](c7ccc(N[C@@H]8CCC(=O)NC8=O)cc7)C6)CC5)ccc4c23)ccc1[C@@H](C)NC(=O)c1nc(C2(C)CC2)no1 [Example 118, N—((R)-1-(4-(7-(4-((1S,3s)-3-(4-(((R)-2,6-dioxopiperidin-3-yl)amino)phenyl)cyclobutyl)piperazin-1-yl)-9H-pyrimido[4,5-b]indol-4-yl)-2-methylphenyl)ethyl)-3-(1-methylcyclopropyl)-1,2,4-oxadiazole-5-carboxamide] | > 10000 | –
2.51 | Cc1cc(-c2ncnc3[nH]c4cc(N5CCN([C@H]6C[C@H](c7ccc(N[C@H]8CCC(=O)NC8=O)cc7)C6)CC5)ccc4c23)ccc1[C@@H](C)NC(=O)c1nc(C2(C)CC2)no1 [Example 119, N—((R)-1-(4-(7-(4-((1S,3r)-3-(4-(((S)-2,6-dioxopiperidin-3-yl)amino)phenyl)cyclobutyl)piperazin-1-yl)-9H-pyrimido[4,5-b]indol-4-yl)-2-methylphenyl)ethyl)-3-(1-methylcyclopropyl)-1,2,4-oxadiazole-5-carboxamide] | > 10000 | –
